Measured values as given in US12466821B2 (Novartis AG, priority 2018, dated 2025).

Tests used:
[1] = molecular target: human CMV DNA polymerase UL54 (Human cytomegalovirus (strain AD169) (HHV-5) (Human herpesvirus 5), UniProt P08546); assay: CMV polymerase biochemical assay (molecular beacon-based)
Outline: (§1)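 Full-length wild-type N-terminal MBP-fusion polymerases from sf9 cells were used at 100 pM (CMV) or 625 pM (HSV) in Tris pH 7.5, 10 mM MgCl2, and preincubated with inhibitor for 30 min at RT. Reactions with 1.25 uM each dNTP, 200 nM primer and 100 nM molecular beacon ran 60 min (CMV) or 20 min (HSV) at RT. Fluorescence was read at 480/535 nm and IC50 derived.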

[2] = molecular target: human HSV DNA polymerase UL30 (Human herpesvirus 1 (strain 17) (HHV-1) (Human herpes simplex virus 1), UniProt P04293); assay: HSV polymerase biochemical assay (molecular beacon-based)
Outline: as §1

[3] = system: Luciferase-encoding HCMV, AD169 strain; assay: CMV Luciferase assay (cellular herpesvirus replication); format: cell-based; details: Human betaherpesvirus 5, AD169, read-out: CMV-Luc Cellular EC50
Outline: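 Reporter HCMV AD169 with luciferase driven by late pp28 promoter, so signal requires viral DNA replication; NN-NHDF fibroblasts in 2% FBS medium, compound (0.0159–50 or 0.00318–10 μM, 0.5% DMSO) added 1 h before infection at MOI 1. Luminescence read 72 hpi; EC50 from 4-parameter fit of control-normalized %.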

O=C(NCc1ccc(Cl)cc1)c1ccc2n(c1=O)CCN(CC1(N3CCCCC3=O)CC1)C2=O [Example 202] showed an IC50 [1] of 305 nM, an IC50 [2] of 6.47 µM and an EC50 [3] of 7.65 µM.
Work on O=C(NCc1ccc(Cl)cc1)c1ccc2n(c1=O)CCN(CC1(N3CCOCC3=O)CC1)C2=O [Example 203] yielded an IC50 [1] of 410 nM, an IC50 [2] of 12.2 µM and an EC50 [3] of 10 µM.
For CNC1(CN2CCn3c(ccc(C(=O)NCc4ccc(Cl)cc4)c3=O)C2=O)CC1 [Example 204, N-(4-chlorobenzyl)-2-((1-(methylamino)cyclopropyl)methyl)-1,6-dioxo-1,3,4,6-tetrahydro-2H-pyrido[1,2-a] pyrazine-7-carboxamide], the IC50 [1] was 156 nM, the IC50 [2] was 5.47 µM and the EC50 [3] was 4.04 µM.
For CC(=O)N(C)C1(CN2CCn3c(ccc(C(=O)NCc4ccc(Cl)cc4)c3=O)C2=O)CC1 [Example 205], the IC50 [1] was 249 nM, the IC50 [2] was 8.59 µM and the EC50 [3] was 3.76 µM.
Work on CN(C(=O)OC(C)(C)C)C1(CN2CCn3c(ccc(C(=O)NCc4ccc(Cl)cc4)c3=O)C2=O)CC1 [Example 206] yielded an IC50 [1] of 1740 nM, an IC50 [2] of 250 µM and an EC50 [3] of 10 µM.
Work on O=C(NCc1ccc(Cl)cc1)c1ccc2n(c1=O)CCN(CC1(C(=O)N3CCCC3)CC1)C2=O [Example 210] yielded an IC50 [1] of 25.7 nM, an IC50 [2] of 0.428 µM and an EC50 [3] of 0.494 µM.
With CNc1cc(CNC(=O)c2ccc3n(c2=O)CCN(CC2(S(=O)(=O)C4CC4)CC2)C3=O)ccc1C#N [Example 212, N-(4-cyano-3-(methylamino)benzyl)-2-((1-(cyclopropylsulfonyl)cyclopropyl)methyl)-1,6-dioxo-1,3,4,6-tetrahydro-2H-pyrido[1,2-a]pyrazine-7-carboxamide] the IC50 [1] was 0.6 nM, the IC50 [2] was 0.0514 µM and the EC50 [3] was 0.315 µM.
